How the values were obtained:
HCT-116 = assay: Antitumor activity against human HCT116 cells after 72 hrs by MTT assay; type: functional, cell-based; conditions: HCT-116, 72 h
U2OS = assay: Antitumor activity against human U2OS cells after 72 hrs by MTT assay; type: functional, cell-based
Homo sapiens [1] = species on record: Homo sapiens; assay: Inhibition of NAE in human HCT116 cells assessed as decrease in NEDD8-UBC12 complex formation after 4 hrs by Western blot analysis; type: cell-based
Homo sapiens [2] = species on record: Homo sapiens; assay: Inhibition of NAE in human HCT116 cells assessed as decrease in NEDD8 level after 4 hrs by Western blot analysis; type: cell-based

IC50 (HCT-116) | IC50 (U2OS) | SMILES | inhibition (Homo sapiens [1]) | inhibition (Homo sapiens [2])
> 100 µM | > 100 µM | CC(O)c1cccc(NC(=O)c2cc(Br)ccc2Br)c1 (configuration not stated) | – | –
0.19 µM | 0.16 µM | NS(=O)(=O)OC[C@@H]1C[C@@H](n2ccc3c(N[C@H]4CCc5ccccc54)ncnc32)C[C@@H]1O [PEVONEDISTAT] | – | –
> 100 µM | > 100 µM | COc1cc(CNC(C)(C)CO)ccc1OCC(=O)Nc1ccc(C)cc1 | – | –
21 µM | 12.3 µM | O=C(CSC1CCCCC1)Nc1ccc2nc(NC(=O)c3ccc(C(F)(F)F)cc3)sc2c1 | – | –
11.1 µM | 5.14 µM | O=C(Cn1cc(F)c(=O)n(CC(=O)Nc2ccc(Br)cn2)c1=O)Nc1ccc(Br)cn1 | – | –
0.32 µM | 1 µM | Cc1ccc(SCC(=O)Nc2ccc3nc(NC(=O)c4ccc(C(F)(F)F)cc4)sc3c2)c(C)c1 | – | –
41 µM | > 100 µM | O=C(CSc1cccc(O)c1)Nc1ccc2nc(NC(=O)c3ccccc3)sc2c1 | – | –
47.4 µM | 88.8 µM | Cc1ccc(S(=O)(=O)Nc2nc(C)c(NC(=O)Nc3ccc(Cl)cc3)s2)cc1 | – | –
65 µM | > 100 µM | Cc1cc(C)cc(C(=O)Nc2nc3ccc(NC(=O)CSc4ccc(Cl)cc4)cc3s2)c1 | – | –
66.6 µM | > 100 µM | COc1ccc(C(=O)Nc2nnc(SCC(=O)Nc3ccc(Br)cc3)s2)cc1OC | – | –
20.1 µM | 21.7 µM | Oc1ccc(Cl)cc1/C=N/c1ccc(-c2nc3ccccc3o2)c(O)c1 | – | –
0.1 µM | 1.22 µM | Nc1ccc(SCC(=O)Nc2ccc3nc(NC(=O)c4ccc(C(F)(F)F)cc4)sc3c2)cc1 | Dose-dependent effect | Dose-dependent effect
7.02 µM | 63 µM | O=C(CSc1cccc(O)c1)Nc1ccc2nc(NC(=O)c3cccs3)sc2c1 | – | –
2.69 µM | 18.8 µM | O=C(CSc1ncc[nH]1)Nc1ccc2nc(NC(=O)c3ccc(C(F)(F)F)cc3)sc2c1 | – | –
> 100 µM | 93.1 µM | COc1ccc(/C=N/NC(=O)c2ccc(NC(=O)c3ccccc3Br)cc2)cc1 | – | –
0.93 µM | 2.89 µM | O=C(CSc1ccc(Cl)cc1)Nc1ccc2nc(NC(=O)c3ccc(C(F)(F)F)cc3)sc2c1 | – | –
10.6 µM | 10.1 µM | CCCC(=O)Nc1nc2ccc(NC(=O)CSc3cccc(O)c3)cc2s1 | – | –
15.3 µM | 79.3 µM | Cc1nc(Nc2nc3ccccc3o2)nc(C)c1C(=O)Nc1ccc(F)cc1 | – | –
91.4 µM | > 100 µM | Cn1c(CNC(=O)c2cccs2)nnc1SCC(=O)Nc1ccc(Cl)cc1 | – | –

IC50 (HCT-116) | IC50 (U2OS) | SMILES | inhibition (Homo sapiens [1]) | inhibition (Homo sapiens [2])
> 100 µM | > 100 µM | Cn1c(CNC(=O)c2cccs2)nnc1SCC(=O)Nc1cccc(Cl)c1 | – | –
7.73 µM | 12.4 µM | Cc1ccc(C(=O)Nc2nc3ccc(NC(=O)CSc4cccc(O)c4)cc3s2)cc1 | – | –
39.5 µM | 63.5 µM | CCn1c(CNc2ccc(OC)cc2)nnc1SCC(=O)Nc1ccc(Cl)cc1 | – | –
4.04 µM | 14.5 µM | O=C(CSc1ccc(Cl)cc1)Nc1ccc2nc(NC(=O)c3ccc4ccccc4c3)sc2c1 | – | –
> 100 µM | > 100 µM | O=C(CSc1nnc(NC(=O)COc2ccccc2)s1)Nc1ccc(Br)cc1 | – | –
2.22 µM | 28.1 µM | O=C(CSc1ncccn1)Nc1ccc2nc(NC(=O)c3ccc(C(F)(F)F)cc3)sc2c1 | – | –
38.1 µM | 40.4 µM | O=C(Cc1nnc(NC(=O)c2ccc(Cl)cc2)s1)N/N=C/c1ccc(O)cc1O | – | –
6.17 µM | 5.12 µM | O=C(CSc1cccc(O)c1)Nc1ccc2nc(NC(=O)c3ccc(F)cc3)sc2c1 | – | –
0.51 µM | 0.63 µM | O=C(CSc1cccc(O)c1)Nc1ccc2nc(NC(=O)c3ccc(C(F)(F)F)cc3)sc2c1 | Dose-dependent effect | Dose-dependent effect
2.12 µM | 3.19 µM | Cc1ccc(C(=O)Nc2nc3ccc(NC(=O)CSc4ccc(Cl)cc4)cc3s2)cc1 | – | –
3.76 µM | 7.11 µM | O=C(CSc1nc2ccccc2[nH]1)Nc1ccc2nc(NC(=O)c3ccc(C(F)(F)F)cc3)sc2c1 | – | –
2.3 µM | 13.6 µM | O=C(CSc1ncccc1C(=O)O)Nc1ccc2nc(NC(=O)c3ccc(C(F)(F)F)cc3)sc2c1 | – | –
68.3 µM | > 100 µM | O=C(Cc1nnc(NC(=O)c2ccc(Cl)cc2)s1)N/N=C/c1ccc(O)cc1 | – | –
1.36 µM | 2.51 µM | O=C(CSc1ccc(Cl)cc1)Nc1ccc2nc(NC(=O)c3ccc(F)cc3)sc2c1 | – | –
4.25 µM | 1.77 µM | O=C(CSc1cccc(O)c1)Nc1ccc2nc(NC(=O)c3ccc4ccccc4c3)sc2c1 | – | –
5.13 µM | 2.82 µM | Cc1cc(C)cc(C(=O)Nc2nc3ccc(NC(=O)CSc4cccc(O)c4)cc3s2)c1 | – | –
0.3 µM | 3.94 µM | O=C(CSc1ccc2ccccc2c1)Nc1ccc2nc(NC(=O)c3ccc(C(F)(F)F)cc3)sc2c1 | Dose-dependent effect | Dose-dependent effect
5.44 µM | 1.53 µM | O=C(CSc1cccc(O)c1)Nc1ccc2nc(NC(=O)c3cc(Cl)cc(Cl)c3)sc2c1 | – | –
2.12 µM | 3.19 µM | CCCC(=O)Nc1nc2ccc(NC(=O)CSc3ccc(Cl)cc3)cc2s1 | – | –

— ChEMBL document CHEMBL4033631, “Discovery of benzothiazole derivatives as novel non-sulfamide NEDD8 activating enzyme inhibitors by target-based virtual screening” (Eur J Med Chem, 2017)
